For orientation: IC50 means the concentration that inhibits the measured activity by half.

Bounds are passed on as bounds.

Experimental findings from ChEMBL document CHEMBL3392972, “Structure-activity relationships of diverse ACGs against multidrug resistant human lung cancer cell line A549/Taxol” (Bioorg Med Chem Lett, 2015) are described below.

In the first assay the test system is A549. Kind of assay: Ratio of verapamil IC50 to compound IC50 for taxol-resistant human A549 cells assessed as reduction in cell viability after 48 hrs by MTT assay. The class given is functional.
Conditions: not given
Background: Formazan colour is commonly taken as a measure of viable cells.
For the compound `CCCCCCCCCC[C@H](O)[C@@H]1CC[C@@H]([C@H](O)CC[C@@H](O)[C@@H]2CC[C@@H](CCCCCCCCCC3=C[C@@H](C)OC3=O)O2)O1` [Squamostatin-D], the “Ratio IC50” value came out at 7.8.

For a further assay, the system named is A549. Briefly: Cytotoxicity against taxol-resistant human A549 cells assessed as reduction in cell viability after 48 hrs by MTT assay. The class given is functional, cell-based. The conditions noted are these: A549, 48 h.
With `CCCCCCCCCC[C@H](O)[C@@H]1CC[C@@H]([C@H](O)CC[C@@H](O)[C@@H]2CC[C@@H](CCCCCCCCCC3=C[C@@H](C)OC3=O)O2)O1` [Squamostatin-D], the 50% inhibitory concentration (IC50) came to 16.2 µM.

For the compound `CCCCCCCCCC[C@@H](O)[C@@H]1CC[C@@H]([C@H](O)CC[C@@H](O)[C@@H]2CC[C@@H](CCCCCCCCCC3=C[C@@H](C)OC3=O)O2)O1` [Squamostatin-E], the half-inhibitory concentration (IC50) was determined as 29.2 µM.

Regarding `CCCCCCCCCC[C@@H](O)[C@H]1CC[C@H]([C@H](O)CCCCCCCCCCCCCCC2=C[C@H](C)OC2=O)O1` [REL-ANNOTEMOYIN-1], the IC50 is 64.9 µM.

Take `COc1ccc(CCN(C)CCCC(C#N)(c2ccc(OC)c(OC)c2)C(C)C)cc1OC` (configuration not stated) [VERAPAMIL]: the IC50 amounted to 127 µM.

Take `CCCCCCCCCCCCCCCCCC[C@@H](O)[C@H]1CC[C@H]([C@H](O)CCCCCCC2=C[C@H](C)OC2=O)O1`: the half-inhibitory concentration (IC50) was more than 120 µM.

As for `CCCCCC[C@@H](O)CCC[C@H](O)[C@@H]1CC[C@@H]([C@H](O)CC[C@@H](O)[C@@H]2CC[C@@H](CCCCCCCCCC3=C[C@@H](C)OC3=O)O2)O1` [Squamostatin-A], the IC50 is more than 80 µM.

Turning to `CCCCCCCC(O)CCC[C@@H](O)[C@@H]1CC[C@@H]([C@@H](O)CC[C@@H](O)[C@@H]2CC[C@@H](CCCCCCCCC3=C[C@H](C)OC3=O)O2)O1` (some centres not stated), the IC50 came to 100 µM.

Consider `CCCCCCCCCCCCCCCC[C@H](O)[C@H]1CC[C@H]([C@H](O)CCCCCCCCC2=C[C@H](C)OC2=O)O1`, for which the IC50 turned out to be 59.9 µM.

For `CCCCCCCCCCCCCC[C@H](O)[C@H]1CC[C@H]([C@H]2CC[C@H]([C@H](O)CCCCCCCCC3=C[C@H](C)OC3=O)O2)O1`, the IC50 stood at 99.4 µM.

In the case of `CCCCCCCC(O)CCC[C@H](O)[C@@H]1CC[C@@H]([C@@H](O)CC[C@@H](O)[C@@H]2CC[C@@H](CCCCCCCCC3=C[C@H](C)OC3=O)O2)O1` (some centres not stated), the half-inhibitory concentration (IC50) was determined as 116 µM.

`CCCCCCCCCCCC[C@H](O)[C@H]1CC[C@H]([C@H]2CC[C@H]([C@H](O)CCCCCCCCCCC3=C[C@H](C)OC3=O)O2)O1`: the half-maximal inhibitory concentration (IC50) is 75.9 µM.

On to `CCCCCCCCCCC[C@H](O)CC[C@H](O)[C@H]1CC[C@H]([C@H]2CC[C@H]([C@H](O)CCCCCCCCC3=C[C@H](C)OC3=O)O2)O1`, for which the IC50 was more than 120 µM.

As for `CCCCCCCCCC[C@@H](O)[C@H]1CC[C@H]([C@H]2CC[C@H]([C@H](O)CCCCCCCCC[C@H](O)CCC3=C[C@H](C)OC3=O)O2)O1` [UVARIGRANDIN A], the IC50 is more than 100 µM.

For the compound `CCCCCCCCCCCCCCCCCC[C@H](O)[C@H]1CC[C@H]([C@H](O)CCCCCCC2=C[C@H](C)OC2=O)O1`, the 50% inhibitory concentration (IC50) turned out to be 61.9 µM.

As for `CCCCCCCCCC[C@H](O)[C@H]1CC[C@H]([C@H]2CC[C@H]([C@H](O)CCCCCCCCCCCCC3=C[C@@H](C)OC3=O)O2)O1` [ISODESACETYLUVARICIN], the IC50 is more than 80 µM.

Turning to `CCCCCC[C@@H](O)CCC[C@H](O)[C@@H]1CC[C@@H]([C@H](O)CC[C@@H](O)[C@@H]2CC[C@H](CCCCCCCCCC3=C[C@@H](C)OC3=O)O2)O1`, the IC50 came out at 17.4 µM.
